Source: US9763445B2, “Safened herbicidal compositions comprising a pyridine carboxylic acid herbicide” (Dow AgroSciences, LLC, priority 2014, dated 2017)

Key:
lambsquarters (CHEAL) = test: Postemergence greenhouse trial, % visual injury on lambsquarters; format: in vivo, Chenopodium album; settings: for % visual injury, observed (Ob): CHEAL
Summary of the method: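 Visual injury, 0 (none) to 100 (complete kill), rated 20-22 d after overhead track-sprayer application at 187 L/ha; Colby's equation gave expected mixture responses. Herbicide (g ae/ha) and cloquintocet-mexyl safener (g ai/ha) diluted in aqueous 1.5% v/v Agri-dex, applied to weeds at 2–3 true leaves.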

wild mustard (SINAR) = test: Postemergence greenhouse trial, % visual injury on wild mustard; format: in vivo, Sinapis arvensis; settings: SINAR
Summary of the method: (§1)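 Herbicide rates g ae/ha, safener (cloquintocet-mexyl) rates g ai/ha; spray carrier 1.5% v/v crop oil concentrate, 187 L/ha, 2nd–3rd leaf stage. Rating: visual % injury at 20-22 d.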

kochia (KCHSC) = test: Postemergence greenhouse trial, % visual injury on kochia; format: in vivo, Kochia scoparia; settings: KCHSC
Summary of the method: as §1

spring barley (HORVS) = test: Postemergence greenhouse trial, % visual injury on spring barley; format: in vivo, Hordeum vulgare; settings: HORVS
Summary of the method: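 Greenhouse crops at second to third true leaf stage sprayed postemergence at 187 L/ha with herbicide (g ae/ha) plus safener (g ai/ha) in acetone/DMSO diluted into 1.5% v/v Agri-dex. Injury scored visually versus solvent-blank controls after 20-22 d, 0 (none) to 100% (complete kill); expected mixture effects by Colby's equation.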

pigweed (AMARE) = test: Postemergence greenhouse trial, % visual injury on pigweed; format: in vivo, Amaranthus retroflexus; settings: for % visual injury, observed (Ob): AMARE
Summary of the method: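 Injury was scored visually (0 = none, 100 = complete kill) 20–22 d after track-sprayer application at 187 L/ha, compared with solvent-sprayed controls. Test plants at the 2–3 true leaf stage; herbicide (g ae/ha) plus cloquintocet-mexyl safener (g ai/ha) in crop-oil-containing spray; expected mixture response by Colby.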

[1] = compound 8 4.380 + CQC-m 0 g/ha
[2] = compound 2 4.380 + CQC-m 0 g/ha

## COC(=O)c1nc(-c2ccc3cc[nH]c3c2F)c(F)c(N)c1Cl [compound 8]
Lambsquarters (CHEAL); [1]
  % visual injury, observed (Ob): 86%
Lambsquarters (CHEAL); compound 8 8.75 + CQC-m 0 g/ha
  % visual injury, observed (Ob): 92%
Lambsquarters (CHEAL); compound 8 17.5 + CQC-m 0 g/ha
  % visual injury, observed (Ob): 99%
Lambsquarters (CHEAL); compound 8 35 + CQC-m 0 g/ha
  % visual injury, observed (Ob): 100%
Lambsquarters (CHEAL); compound 8 70 + CQC-m 0 g/ha
  % visual injury, observed (Ob): 100%
Wild mustard (SINAR); [1]
  % visual injury, observed (Ob): 76%
Wild mustard (SINAR); compound 8 8.75 + CQC-m 0 g/ha
  % visual injury, observed (Ob): 82%
Wild mustard (SINAR); compound 8 17.5 + CQC-m 0 g/ha
  % visual injury, observed (Ob): 96%
Wild mustard (SINAR); compound 8 35 + CQC-m 0 g/ha
  % visual injury, observed (Ob): 99%
Wild mustard (SINAR); compound 8 70 + CQC-m 0 g/ha
  % visual injury, observed (Ob): 98%
Kochia (KCHSC); [1]
  % visual injury, observed (Ob): 69%
Kochia (KCHSC); compound 8 8.75 + CQC-m 0 g/ha
  % visual injury, observed (Ob): 77%
Kochia (KCHSC); compound 8 17.5 + CQC-m 0 g/ha
  % visual injury, observed (Ob): 81%
Kochia (KCHSC); compound 8 35 + CQC-m 0 g/ha
  % visual injury, observed (Ob): 95%
Kochia (KCHSC); compound 8 70 + CQC-m 0 g/ha
  % visual injury, observed (Ob): 95%
Spring barley (HORVS); [1]
  % visual injury, observed (Ob): 12%
Spring barley (HORVS); compound 8 8.75 + CQC-m 0 g/ha
  % visual injury, observed (Ob): 18%
Spring barley (HORVS); compound 8 17.5 + CQC-m 0 g/ha
  % visual injury, observed (Ob): 31%
Spring barley (HORVS); compound 8 35 + CQC-m 0 g/ha
  % visual injury, observed (Ob): 43%
Spring barley (HORVS); compound 8 70 + CQC-m 0 g/ha
  % visual injury, observed (Ob): 53%

## Nc1c(F)c(-c2ccc3cc[nH]c3c2F)nc(C(=O)OCc2ccccc2)c1Cl [compound 2]
Pigweed (AMARE); [2]
  % visual injury, observed (Ob): 80%
Pigweed (AMARE); compound 2 8.75 + CQC-m 0 g/ha
  % visual injury, observed (Ob): 95%
Pigweed (AMARE); compound 2 17.5 + CQC-m 0 g/ha
  % visual injury, observed (Ob): 100%
Pigweed (AMARE); Amaranthus retroflexus, post-emergence, alone, 35 g/ha, read-out: % visual injury, Ob
  pest or weed control at 35 g/ha: 100%
Lambsquarters (CHEAL); [2]
  % visual injury, observed (Ob): 85%
Lambsquarters (CHEAL); compound 2 8.75 + CQC-m 0 g/ha
  % visual injury, observed (Ob): 95%
Lambsquarters (CHEAL); compound 2 17.5 + CQC-m 0 g/ha
  % visual injury, observed (Ob): 97%
Lambsquarters (CHEAL); compound 2 35 + CQC-m 0 g/ha
  % visual injury, observed (Ob): 100%
Lambsquarters (CHEAL); compound 2 70 + CQC-m 0 g/ha
  % visual injury, observed (Ob): 100%
Lambsquarters (CHEAL); Chenopodium album, post-emergence, alone, 35 g/ha, read-out: % visual injury, Ob
  pest or weed control at 35 g/ha: 97%
Wild mustard (SINAR); [2]
  % visual injury, observed (Ob): 94%
Wild mustard (SINAR); compound 2 8.75 + CQC-m 0 g/ha
  % visual injury, observed (Ob): 95%
Wild mustard (SINAR); compound 2 17.5 + CQC-m 0 g/ha
  % visual injury, observed (Ob): 99%
Wild mustard (SINAR); compound 2 35 + CQC-m 0 g/ha
  % visual injury, observed (Ob): 100%
Wild mustard (SINAR); compound 2 70 + CQC-m 0 g/ha
  % visual injury, observed (Ob): 100%
Kochia (KCHSC); [2]
  % visual injury, observed (Ob): 93%
Kochia (KCHSC); compound 2 8.75 + CQC-m 0 g/ha
  % visual injury, observed (Ob): 95%
Kochia (KCHSC); compound 2 17.5 + CQC-m 0 g/ha
  % visual injury, observed (Ob): 98%
Kochia (KCHSC); compound 2 35 + CQC-m 0 g/ha
  % visual injury, observed (Ob): 99%
Kochia (KCHSC); compound 2 70 + CQC-m 0 g/ha
  % visual injury, observed (Ob): 100%
Kochia (KCHSC); compound 2 140 + CQC-m 0 g/ha
  % visual injury, observed (Ob): 95%
